According to US10910084B2, “Method for modelling, optimizing, parameterizing, testing and validating a dynamic network with network perturbations” (Albert-Ludwigs-Universität Freiburg, priority 2011, dated 2021):

Columns and labels:
Type in all cases: cell-based
[1] = system: mTOR-pS2481 (mTORC2 readout) in HeLa cells; assay: mTOR-pS2481 immunoblot of whole cell lysates, HeLa cells starved and induced with aa/insulin
Procedure: (§1) Experiments were performed in particular in HeLa α Kyoto cells and C2C12 myoblasts. For inducible knock down of Raptor or TSC2, cells were transduced with lentivirus encoding the tetracycline-sensitive tTR-KRAB repressor and a DsRed reporter. Cells were subsequently transfected with lentivirus encoding the specific shRNA, and a GFP reporter, (pLVTH vector), both preferably under the control of tTR-KRAB. For lentivirus-mediated knock down of Rictor a pLKO.1-based short hairpin construct specific for Rictor (Addgene plasmid 1853), as well as a scrambled control sequence (Addgene plasmid 1864) can in particular be supplied from Addgene. HeLa cells were transfected with viral supernatant twice as described previously and harvested 60 hours after transfection.
For calibration data sets, in particular HeLa cells can be starved for serum and amino acids by exchanging standard growth medium for Hank's Buffered Salt Solution (HBSS) (PAN Biotech GmbH, Aidenbach, Germany) over night to inhibit mTOR pathway activity. After 16 hours of starvation, mTOR signaling was restimulated with DMEM containing amino acids and supplemented with 100 nM insulin (Sigma Aldrich, St. Louis, Mo., USA).
Gradual knockdowns of Raptor or TSC2 can preferably be established by induction with 5 μg/ml doxycycline (Calbiochem, Merck, Darmstadt, Germany) for 0, 1, 2, or 3 days. Cells can be starved for 16 hours in HBSS and mTOR signaling was induced with DMEM (PAA, Pasching, Austria) supplemented with 100 nM insulin. […] Wortmannin or LY294002 can in particular be added 30 min prior to and during the stimulation with DMEM supplemented 100 nM insulin. Cells can for example be washed once with PBS and lysed with TNE lysis buffer [50 mM Tris HCL pH8.0, 150 mM NaCl, 1% v/v TritonX-100 (Calbiochem, Merck, Darmstadt, Germany), Complete (Roche, Mannheim, Germany), Phosphatase Inhibitor Cocktail 2, Phosphatase Inhibitor Cocktail 3 (both Sigma Aldrich, St. Louis, Mo., USA)]. Protein concentrations can preferably be measured (Protein Assay Dye Reagent Concentrate, Bio-Rad, Hercules, Calif., USA) according to manufacturer's protocol. Concentrations can for example be adjusted with lysis buffer. […] Whole cell lysates can for example be analyzed using SDS-PAGE gels. […]
(§2) HRP can for example be detected with the ECL Western Blotting Substrate or the SuperSignal West Femto reagent [Pierce Biotechnology (Thermo Scientific, Rockford, Ill. USA)], and the emitted light can in particular be detected and quantified with a chemiluminescence imaging analyzer (LAS4000mini; Fujifilm, Tokyo, Japan). Obtained images can preferably be analyzed with Multi-Gauge version 3.0 software (Fujifilm, Tokyo, Japan). […]

[2] = system: Akt-pS473 in HeLa cells; assay: Akt-pS473 immunoblot of whole cell lysates, HeLa cells; details: HeLa cells starved, induced by aa/insulin for 30 and 50 min
Procedure: as §1, with “HeLa cells were transfected with viral supernatant twice as described previously and harvested 60 hours after transfection.” left out
(§3) Gradual knockdowns of Raptor or TSC2 can preferably be established by induction with 5 μg/ml doxycycline (Calbiochem, Merck, Darmstadt, Germany) for 0, 1, 2, or 3 days. […] Protein concentrations can preferably be measured (Protein Assay Dye Reagent Concentrate, Bio-Rad, Hercules, Calif., USA) according to manufacturer's protocol. […] Whole cell lysates can for example be analyzed using SDS-PAGE gels. […]
as §2, with “Japan).” for “Japan). Obtained images can preferably be analyzed with Multi-Gauge version 3.0 software (Fujifilm, Tokyo, Japan).”

[3] = system: p70-S6K-pT389 (mTORC1 readout) in HeLa cells; assay: p70-S6K-pT389 immunoblot of whole cell lysates, HeLa cells; details: quantitation of 3 experiments; 200 nM PP242; Rapamycin; * P<0.05
Procedure: as §1, with “HeLa cells were transfected with viral supernatant twice as described previously and harvested 60 hours after transfection.” left out
as §3
as §2, with “Japan).” for “Japan). Obtained images can preferably be analyzed with Multi-Gauge version 3.0 software (Fujifilm, Tokyo, Japan).”

[4] = system: mTOR-pS2481 associated with the immunoprecipitated mTORC2; assay: mTOR-pS2481 in mTORC2 immunoprecipitated with Sin1 antibody, HeLa cells; details: Sin1 immunoprecipitation
Procedure: Immunoprecipitations can in particular be performed as described elsewhere. […] Immunoprecipitations were performed with 5 μg/ml antibody [antibody recognizing Sin1, Raptor, or rabbit IgG (all Bethyl)] and with magnetic Dynabeads Protein G (Invitrogen). Gradual knockdowns of Raptor or TSC2 can preferably be established by induction with 5 μg/ml doxycycline (Calbiochem, Merck, Darmstadt, Germany) for 0, 1, 2, or 3 days. Cells can be starved for 16 hours in HBSS and mTOR signaling was induced with DMEM (PAA, Pasching, Austria) supplemented with 100 nM insulin. […] Wortmannin or LY294002 can in particular be added 30 min prior to and during the stimulation with DMEM supplemented 100 nM insulin. […] Protein concentrations can preferably be measured (Protein Assay Dye Reagent Concentrate, Bio-Rad, Hercules, Calif., USA) according to manufacturer's protocol. […] Whole cell lysates can for example be analyzed using SDS-PAGE gels. […] HRP can for example be detected with the ECL Western Blotting Substrate or the SuperSignal West Femto reagent [Pierce Biotechnology (Thermo Scientific, Rockford, Ill. USA)], and the emitted light can in particular be detected and quantified with a chemiluminescence imaging analyzer (LAS4000mini; Fujifilm, Tokyo, Japan). Obtained images can preferably be analyzed with Multi-Gauge version 3.0 software (Fujifilm, Tokyo, Japan). […]

[5] = system: mTOR-pS2481 in C2C12 cells; assay: mTOR-pS2481 immunoblot in C2C12 myoblasts; details: continuous presence of aa/insulin
Procedure: as §1, with “HeLa cells were transfected with viral supernatant twice as described previously and harvested 60 hours after transfection.” left out
as §3
as §2, with “Japan).” for “Japan). Obtained images can preferably be analyzed with Multi-Gauge version 3.0 software (Fujifilm, Tokyo, Japan).”

In the case of `COC[C@H]1OC(=O)c2coc3c2[C@@]1(C)C1=C(C3=O)[C@@H]2CCC(=O)[C@@]2(C)C[C@H]1OC(C)=O` [Wortmannin], the “Wortmannin concentrations at which mTORpS2481 was inhibited” value ([1]; HeLa cells starved, induced by aa/insulin for 30 and 50 min) was no less than 20 nM, the “Wortmannin concentration at which Akt-pS473 was already inhibited” value [2] was 5 nM and the “Wortmannin concentrations at which Akt-pS473 was strongly inhibited” value [2] was no less than 10 nM.
For `CC(C)n1nc(-c2cc3cc(O)ccc3[nH]2)c2c(N)ncnc21` [PP242], the mTOR-pS2481 abundance ([1]; HeLa cells, short-term treatment) was “reduced the abundance of mTORpS2481 in a dose-dependent manner”, the “mTOR-pS2481 compared to DMSO-treated control, significance (FIG. 1E)” value ([1]; quantitation of 3 experiments, 200 nM PP242, 100 nM Rapamycin, * P<0.05) was “significant” and the “p70-S6K-pT389 compared to DMSO-treated control, significance (FIG. 1D)” value [3] was “significant”. The “mTOR-pS2481 associated with the immunoprecipitated mTORC2” value [4] was “significantly reduced” and the “amount of mTOR-pS2481” value [5] was “decreased”.
In the case of `O=c1cc(N2CCOCC2)oc2c(-c3ccccc3)cccc12` [LY294002], the “LY294002 concentrations at which mTORpS2481 was reduced” value ([1]; HeLa cells (FIG. 10C)) was no less than 1 µM.
